In PMC7073023, “Overexpression of ABCB1 Transporter Confers Resistance to mTOR Inhibitor WYE-354 in Cancer Cells” (International Journal of Molecular Sciences, 2020):

Experiments:
ABCB1 [1] = target: T1, ABCB1 (Homo sapiens, UniProt P08183)
ABCB1 [2] = target: T1, ABCB1; assay: cell-based; set-up: full length ABCB1 (transfected HEK293); ABCB1 membrane vesicles (ATPase kit); conditions: read-out: % of the basal activity

T1 sequence (P08183 whole entry): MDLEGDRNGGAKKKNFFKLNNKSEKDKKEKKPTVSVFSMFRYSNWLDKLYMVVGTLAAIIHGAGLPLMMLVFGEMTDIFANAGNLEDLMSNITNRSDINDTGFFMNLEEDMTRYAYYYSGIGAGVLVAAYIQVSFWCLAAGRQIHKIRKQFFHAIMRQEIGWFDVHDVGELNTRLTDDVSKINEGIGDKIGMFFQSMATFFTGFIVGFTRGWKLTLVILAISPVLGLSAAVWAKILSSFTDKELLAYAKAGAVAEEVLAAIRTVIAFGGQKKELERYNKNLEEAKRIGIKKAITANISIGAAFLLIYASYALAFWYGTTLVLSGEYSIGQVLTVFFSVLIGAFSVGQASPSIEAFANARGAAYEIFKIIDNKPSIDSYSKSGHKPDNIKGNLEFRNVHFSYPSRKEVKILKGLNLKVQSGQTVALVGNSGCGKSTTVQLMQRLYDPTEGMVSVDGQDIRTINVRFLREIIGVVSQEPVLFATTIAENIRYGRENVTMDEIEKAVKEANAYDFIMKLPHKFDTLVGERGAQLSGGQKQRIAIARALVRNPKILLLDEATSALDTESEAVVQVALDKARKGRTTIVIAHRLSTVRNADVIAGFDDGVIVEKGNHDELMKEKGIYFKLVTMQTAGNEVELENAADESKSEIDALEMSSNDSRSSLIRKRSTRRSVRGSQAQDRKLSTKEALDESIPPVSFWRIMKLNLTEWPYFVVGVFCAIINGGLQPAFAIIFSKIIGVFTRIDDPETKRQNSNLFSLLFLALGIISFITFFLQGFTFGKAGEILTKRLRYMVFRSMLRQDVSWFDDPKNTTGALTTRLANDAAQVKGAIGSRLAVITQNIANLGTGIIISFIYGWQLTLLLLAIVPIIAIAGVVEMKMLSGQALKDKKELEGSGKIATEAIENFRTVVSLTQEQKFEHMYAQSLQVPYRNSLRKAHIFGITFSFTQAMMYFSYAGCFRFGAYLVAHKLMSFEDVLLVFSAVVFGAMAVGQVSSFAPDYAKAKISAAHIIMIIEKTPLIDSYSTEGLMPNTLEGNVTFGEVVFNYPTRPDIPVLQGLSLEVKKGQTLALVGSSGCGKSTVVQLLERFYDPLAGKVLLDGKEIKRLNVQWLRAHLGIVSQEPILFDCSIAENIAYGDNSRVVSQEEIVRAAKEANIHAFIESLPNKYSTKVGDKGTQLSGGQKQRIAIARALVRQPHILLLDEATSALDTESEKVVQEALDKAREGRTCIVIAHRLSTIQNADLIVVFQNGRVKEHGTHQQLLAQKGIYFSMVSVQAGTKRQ

How did the “[3H]-paclitaxel accumulation in ABCB1-overexpressing and ABCB1-transfected cells” value (ABCB1 [1]) turn out when `CC(=O)O[C@H]1C(=O)[C@@]2(C)[C@H]([C@H](OC(=O)c3ccccc3)[C@]3(O)C[C@H](OC(=O)[C@H](O)[C@@H](NC(=O)c4ccccc4)c4ccccc4)C(C)=C1C3(C)C)[C@]1(OC(C)=O)CO[C@@H]1C[C@@H]2O` [paclitaxel] was run?
Its value is “drug–drug interaction between WYE-354 and paclitaxel, which is a known substrate of ABCB1”.

`COC(=O)Nc1ccc(-c2nc(N3CCOCC3)c3cnn(C4CCN(C(=O)OC)CC4)c3n2)cc1` [WYE-354] was tested. Which Emax (ABCB1 [2]) did it give?
The Emax was 141%.
